These results are taken from US20250074885A1, “CRYSTALLINE FREEBASE FORM OF 2-(4-CHLOROBENZYLAMINO)-4-(4-TERT-BUTYLAMINOPIPERIDIN-1-YL)-QUINOLINE AND USES THEREOF” (Genoscience Pharma, priority 2023, published 2025).

The term solubility denotes how much of the substance goes into solution per volume.

Holding throughout (assay type): physicochemical
Series [1] can be described thus: Chemical stability of bulk powder under temperature and humidity stress (HPLC). Conditions: for Chemical stability as a bulk powder: at least 1 month at +40° C./75% RH and at +60° C.; for % of unchanged compound left (HPLC-UV at 323 nm): bulk powder, versus standard solutions. As for the experimental part:
(§1) The chemical and physical accelerated stability of crystalline form I (see example II) is studied in order to anticipate potential stability issues upon storage or ageing.
(§2) Crystalline form I powder is stored for 1 month at +40° C./75% RH and is also stored for 1 month at +60° C. (with % RH<10%).
The chemical stability is then assessed by chromatography by external standardization versus a freshly prepared (non-stressed crystalline form I) standard solution. For that purpose, three samples (exactly weighted) are stored for each condition.

The nature of series [2]: Thermogravimetric analysis (TGA), thermal decomposition. The protocol:
Thermogravimetric analysis is performed on a TA Instruments TGA Hi-Res 2950 apparatus equipped with an evolved gas analysis furnace. A ThermoNicolet Nexus FTIR bench, equipped with FTIR cell gas analysis, is coupled to TGA apparatus via a transfer line.
A sample is placed in an opened aluminum basket and analyzed according to conditions described in Table 6.

The nature of series [3]: Physical stability of bulk powder under temperature and humidity stress (XRPD, DSC, TGA). Conditions: for Physical stability as a bulk powder: at least 1 month at +40° C./75% HR and at +60° C. The protocol:
as §1, §2
The physical stability is also assessed by XRPD, DSC and TGA analyses by comparing the XRPD and thermal profiles of stressed samples to those of a non-stressed sample. For that purpose, one more sample is stored in each condition (respectively +40° C./75% RH and +60° C.).

Series [4] is described as follows: Dynamic water vapor sorption (DVS) analysis. Conditions: for Hygroscopicity: DVS; for Conversion into hydrated form: high relative humidity up to 95%. The protocol: The dynamic vapor sorption (DVS) analysis (gas water sorption) is performed on a DVS-Intrinsic incubator (SMS Ltd), equipped with DVS-Intrinsic Control Software 1.0.
The sample, placed in an aluminum basket holder, is submitted to a full-cycle analysis (sorption followed by desorption cycle) under the conditions described in Table 9.
The sample is first pre-dried under a stream of dry air until a stabilized sample mass is observed. Then, the relative humidity is increased by 5% increments. At each step, the sample mass is allowed to increase until equilibrium is reached (according to a given dm/dt target), and then a new relative humidity rise occurs. Relative humidity is ramped up to 95%. After equilibration at this point, desorption begins in a similar stepwise manner, with sample mass decrease again allowed to stabilize after each incremental humidity decrease.
With both segments of the above described method, the sample mass recording allows describing of the whole vapor water sorption/desorption behavior versus relative humidity.

The nature of series [5]: Visual (apparent) solubility assessment in re-crystallization solvents. To be noted: for solubility: 20 °C, organic solvent or mixture, thermodynamic from solid, read-out: Estimated solubility. As for the experimental part:
Prior to launching the slurry experiments, an “apparent solubility” is determined in all ageing media. To do so, to accurately weighed small amounts of 2-(4-chlorobenzylamino)-4-(4-tert-butylaminopiperidin-1-yl)-quinoline, aliquots of each solvent are successively added until complete dissolution is observed. The corresponding solubility S is then estimated.

Setting [6] is: 1 month +40° C./75% RH and +60° C.

Read-outs that look alike come from different tables or passages of the source.

As for `CC(C)(C)NC1CCN(c2cc(NCc3ccc(Cl)cc3)nc3ccccc23)CC1` [Crystalline Form I, 2-(4-chlorobenzylamino)-4-(4-tert-butylaminopiperidin-1-yl)-quinoline], in series [1] (1 month +40° C./75% RH), the “% purity at 323 nm after stress” value is given as “(% purity = 98.7% at 323 nm)”; the “Impurity profile compared to the standard profile (HPLC-UV at 323 nm, 252 nm and 203 nm)” value was “No additional impurity”; the “% of unchanged compound left (HPLC-UV at 323 nm)” value stood at 99.7%. In series [1] (1 month +60° C.), the “% purity at 323 nm after stress” value was “(% purity = 98.8% at 323 nm)”; the “Impurity profile compared to the standard profile (HPLC-UV at 323 nm, 252 nm and 203 nm)” value is reported as “No additional impurity”; the “% of unchanged compound left (HPLC-UV at 323 nm)” value was 100.5%. Further, in series [1], the “Chemical stability as a bulk powder” value is recorded as “chemically stable”. The “TOnset of main thermal decomposition (TGA)” value (“TOnset” below) in series [2] (non-stressed sample (initial analysis)) is “+333 °C”. Besides, in series [2] (non-stressed sample, upon heating), the “Mass loss before the main thermal decomposition (TGA)” value is “no mass loss is detected”. Also, the XRPD results in series [3] (1 month +40° C./75% HR) is “Diffractogram comparable to the initial”. In addition, the “TOnset” value in series [3] (1 month +40° C./75% RH) is “+333 °C”. In addition, in series [3] (setting [6]), the “TGA difference between stressed samples and initial physical form” value is given as “No difference”; the “XRPD pattern difference between stressed samples and initial physical form” value is reported as “No XRPD pattern difference”. In addition, in series [3] (1 month +60° C.), the “TOnset” value is “+334 °C” and the XRPD results is recorded as “Diffractogram comparable to the initial”. For the same compound, in series [3], the “Physical stability as a bulk powder” value is recorded as “physically stable”. Further, the “DSC profile difference between stressed samples and initial physical form” value in series [3] (stored at +40° C./75% RH and at +60° C.) was “No DSC profile difference”. Further, the “Sample mass variation upon sorption” value in series [4] (+25° C., 0% to 10% RH) is given as “no significant mass variation”. For the same compound, the Hygroscopicity entry in series [4] (+25° C.) is given as “non-hygroscopic at all”. Also, the “Final sample mass lower than starting mass after desorption” value in series [4] (+25° C., back to 0% RH, cycle 1, versus mass after pre-drying) was 0.09%. Besides, in series [4] (+25° C., between 95% and 65% RH), the “Hysteresis on loss of adsorbed water (desorption)” value was “without hysteresis”. In addition, the “Mass loss during preliminary drying phase” value in series [4] (+25° C./0% RH, before sorption) stood at 0.12%. The compound further came in with a Water uptake in series [4] (+25° C./60% RH, sorption cycle 1) of 0.09%. In addition, the Total water uptake in series [4] (+25° C./95% RH, sorption cycle 1) worked out at 0.29%. Further, the “Conversion into hydrated form” value in series [4] is given as “does not convert into any hydrated form”.
Take `CC(C)(C)NC1CCN(c2cc(NCc3ccc(Cl)cc3)nc3ccccc23)CC1` [2-(4-chlorobenzylamino)-4-(4-tert-butylaminopiperidin-1-yl)-] [2-(4-chlorobenzylamino)-4-(4-tert-butylaminopiperidin-1-yl)-quinoline]: the “Chemical stability as a bulk powder” value in series [1] was “chemically and physically stable”. Moreover, the “Solubility (grade in words)” value in series [5] (Acetone, 20-25° C.) was “Medium”; in series [5] (EtAc, 20-25° C.), “Medium”; in series [5] (EtOH, 20-25° C.), “Medium”; in series [5] (IPA, 20-25° C.), “Low”; in series [5] (IPAC, 20-25° C.), “Medium”; in series [5] (MEK, 20-25° C.) it was “Low”. Also, the “Solubility (grade in words)” value in series [5] (Propanol-1, 20-25° C.) is recorded as “Medium”. Further, the “Physical stability as a bulk powder” value in series [3] was “chemically and physically stable”. For the same compound, the Hygroscopicity result in series [4] (+25° C.) is “not hygroscopic at all”. Further, the “Conversion into hydrated form” value in series [4] was “does not convert into any hydrated form”.
Take `CC(C)(C)NC1CCN(c2cc(NCc3ccc(Cl)cc3)nc3ccccc23)CC1` [2-(4-chlorobenzylamino)-4-(4-tert-butylaminopiperidin-1-yl)-quinoline]: the solubility is greater than 16 mg/mL in series [5] (Acetone, visual, 20-25° C.); greater than 17.1 mg/mL in series [5] (EtAc, visual, 20-25° C.); greater than 9.8 mg/mL in series [5] (EtOH, visual, 20-25° C.); greater than 2.6 mg/mL in series [5] (IPA, visual, 20-25° C.); greater than 15.2 mg/mL in series [5] (IPAC, visual, 20-25° C.); greater than 2.4 mg/mL in series [5] (MEK, visual, 20-25° C.). Besides, in series [5] (Propanol-1, visual, 20-25° C.), the solubility was greater than 15.1 mg/mL.
